25 compounds from patent US8614327B2 (Vertex Pharmaceuticals Incorporated, priority 2004, dated 2013) can be followed below.

This assay addresses T1, ΔF508-CFTR (Homo sapiens, UniProt P13569, DEL508-508).
T1 construct: expressed in transfected cells
As to the kind of experiment: Membrane potential optical (FRET/VIPR) assay, identification of potentiator compounds. It counts as cell-based. The conditions noted are these: Table 3, assay not given; for % Activity: relative efficacy. The text has this:
I) Membrane Potential Optical Methods for Assaying ΔF508-CFTR Modulation Properties of Compounds The optical membrane potential assay utilized voltage-sensitive FRET sensors described by Gonzalez and Tsien (See, Gonzalez, J. E. and R. Y. Tsien (1995) “Voltage sensing by fluorescence resonance energy transfer in single cells” Biophys J 69(4): 1272-80, and Gonzalez, J. E. and R. Y. Tsien (1997) “Improved indicators of cell membrane potential that use fluorescence resonance energy transfer” Chem Biol 4(4): 269-77) in combination with instrumentation for measuring fluorescence changes such as the Voltage/Ion Probe Reader (VIPR) (See, […]. Oades, et al. (1999) “Cell-based assays and instrumentation for screening ion-channel targets” Drug Discov Today 4(9): 431-439). These voltage sensitive assays are based on the change in fluorescence resonant energy transfer (FRET) between the membrane-soluble, voltage-sensitive dye, DiSBAC2(3), and a fluorescent phospholipid, CC2-DMPE, which is attached to the outer leaflet of the plasma membrane and acts as a FRET donor. Changes in membrane potential (Vm) cause the negatively charged DiSBAC2(3) to redistribute across the plasma membrane and the amount of energy transfer from CC2-DMPE changes accordingly. The changes in fluorescence emission were monitored using VIPR which is an integrated liquid handler and fluorescent detector designed to conduct cell-based screens in 96- or 384-well microtiter plates. To identify potentiators of ΔF508-CFTR, a double-addition HTS assay format was developed. During the first addition, a Cl^--free medium with or without test compound was added to each well. […] (in mM) NaCl 160, KCl 4.5, CaCl2 2, MgCl2 1, HEPES 10, pH 7.4 with NaOH. • Chloride-free bath solution: Chloride salts in Bath Solution #1 are substituted with gluconate salts. • CC2-DMPE: Prepared as a 10 mM stock solution in DMSO and stored at -20° C. • DiSBAC2(3): Prepared as a 10 mM stock in DMSO and stored at -20° C. NIH3T3 mouse fibroblasts stably expressing ΔF508-CFTR are used for optical measurements of membrane potential. […] For all optical assays, the cells were seeded at 30,000/well in 384-well matrigel-coated plates and cultured for 2 hrs at 37° C. before culturing at 27° C. for 24 hrs. for the potentiator assay.

A value given as a limit tells only on which side of the number the result lay.

T1 sequence (P13569 with tags, fused parts or gaps DEL508-508): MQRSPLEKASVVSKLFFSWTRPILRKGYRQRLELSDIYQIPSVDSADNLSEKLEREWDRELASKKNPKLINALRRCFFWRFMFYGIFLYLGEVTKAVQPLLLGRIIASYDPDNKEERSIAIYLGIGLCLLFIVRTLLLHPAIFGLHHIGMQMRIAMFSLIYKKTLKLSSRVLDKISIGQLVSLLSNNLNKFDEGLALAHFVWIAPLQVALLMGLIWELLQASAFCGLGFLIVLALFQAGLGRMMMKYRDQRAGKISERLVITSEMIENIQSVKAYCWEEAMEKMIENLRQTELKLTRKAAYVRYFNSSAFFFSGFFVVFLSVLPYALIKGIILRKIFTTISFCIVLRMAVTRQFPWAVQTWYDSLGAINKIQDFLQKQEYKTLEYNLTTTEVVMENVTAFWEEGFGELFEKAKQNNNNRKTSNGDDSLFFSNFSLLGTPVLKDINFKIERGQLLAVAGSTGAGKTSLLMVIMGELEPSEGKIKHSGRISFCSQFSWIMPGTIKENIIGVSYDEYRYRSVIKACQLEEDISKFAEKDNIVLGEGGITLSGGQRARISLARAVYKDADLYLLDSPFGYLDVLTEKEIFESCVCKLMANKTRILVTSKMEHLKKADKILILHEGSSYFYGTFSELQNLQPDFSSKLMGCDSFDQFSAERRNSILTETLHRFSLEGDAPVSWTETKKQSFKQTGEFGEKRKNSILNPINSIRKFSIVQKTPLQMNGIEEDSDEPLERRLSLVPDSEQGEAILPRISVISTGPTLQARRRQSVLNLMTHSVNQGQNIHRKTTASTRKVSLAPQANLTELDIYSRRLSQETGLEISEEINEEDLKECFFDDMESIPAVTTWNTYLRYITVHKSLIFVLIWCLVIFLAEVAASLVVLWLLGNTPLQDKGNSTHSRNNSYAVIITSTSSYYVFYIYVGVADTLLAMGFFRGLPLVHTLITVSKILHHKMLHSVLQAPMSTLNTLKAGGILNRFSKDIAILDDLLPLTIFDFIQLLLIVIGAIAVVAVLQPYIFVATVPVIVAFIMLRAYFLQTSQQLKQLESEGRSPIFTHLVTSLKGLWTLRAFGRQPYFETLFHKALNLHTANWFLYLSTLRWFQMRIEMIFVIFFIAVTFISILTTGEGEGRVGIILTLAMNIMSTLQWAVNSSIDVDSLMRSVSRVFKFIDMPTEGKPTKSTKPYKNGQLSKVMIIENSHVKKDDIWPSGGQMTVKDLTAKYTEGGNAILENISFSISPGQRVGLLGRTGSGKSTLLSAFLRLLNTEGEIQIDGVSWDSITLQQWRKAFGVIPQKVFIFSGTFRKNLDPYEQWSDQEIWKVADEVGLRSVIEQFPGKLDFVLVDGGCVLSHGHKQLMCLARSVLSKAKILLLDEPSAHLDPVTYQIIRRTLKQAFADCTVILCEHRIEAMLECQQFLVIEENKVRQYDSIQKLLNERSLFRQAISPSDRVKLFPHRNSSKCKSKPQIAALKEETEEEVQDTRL

Take `COc1ccc(Cl)cc1-c1cc2cc[nH]c2cc1NC(=O)c1c[nH]c2ccccc2c1=O` [Compound 1, N-[5-(5-chloro-2-methoxy-phenyl)-1H-indol-6-yl]-4-oxo-1H-quinoline-3-carboxamide]: the concentration giving a half-maximal response (EC50) (commonly the midpoint of the concentration-response curve) is less than 10 µM and the “% Activity” value is listed as “++ (between 25% to 100%)”.

`COc1cc(NC(=O)c2c[nH]c3ccccc3c2=O)ccc1C(C)(C)C` [Compound 2, N-(3-methoxy-4-tert-butyl-phenyl)-4-oxo-1H-quinoline-3-carboxamide]: the EC50 is less than 10 µM and the “% Activity” value is reported as “++ (between 25% to 100%)”.

With `COc1ccccc1Oc1ccc(C(F)(F)F)cc1NC(=O)c1c[nH]c2ccccc2c1=O` [Compound 3, N-[2-(2-methoxyphenoxy)-5-(trifluoromethyl)phenyl]-4-oxo-1H-quinoline-3-carboxamide], the concentration giving a half-maximal response (EC50) was less than 10 µM and the “% Activity” value is listed as “++ (between 25% to 100%)”.

As for `O=C(Nc1ccccc1N1CCOCC1)c1c[nH]c2ccccc2c1=O` [Compound 4, N-(2-morpholinophenyl)-4-oxo-1H-quinoline-3-carboxamide], the 50% effective concentration (EC50) is less than 10 µM and the “% Activity” value is listed as “++ (between 25% to 100%)”.

`CC(C)(CO)c1ccc(NC(=O)c2c[nH]c3ccccc3c2=O)cc1` [Compound 5, N-[4-(2-hydroxy-1,1-dimethyl-ethyl)phenyl]-4-oxo-1H-quinoline-3-carboxamide]: the EC50 fell in the range of 10 to 25 µM and the “% Activity” value is “++ (between 25% to 100%)”.

As for `CC(C)(C)c1ccc(NC(=O)c2c[nH]c3ccccc3c2=O)cc1CO` [Compound 6, N-[3-(hydroxymethyl)-4-tert-butyl-phenyl]-4-oxo-1H-quinoline-3-carboxamide], the EC50 is less than 10 µM and the “% Activity” value was “+++ (>100%)”.

In the case of `CCOc1cc(NC(=O)c2c[nH]c3ccccc3c2=O)c(OCC)cc1NC(=O)c1ccccc1` [Compound 7, N-(4-benzoylamino-2,5-diethoxy-phenyl)-4-oxo-1H-quinoline-3-carboxamide], the EC50 is 25 to 60 µM and the “% Activity” value is “+ (<25%)”.

In the case of `CCc1ccc(NC(=O)c2c[nH]c3ccccc3c2=O)cc1N` [Compound 8, N-(3-amino-4-ethyl-phenyl)-4-oxo-1H-quinoline-3-carboxamide], the EC50 was less than 10 µM and the “% Activity” value is listed as “++ (between 25% to 100%)”.

For the compound `NS(=O)(=O)c1cccc(NC(=O)c2c[nH]c3ccccc3c2=O)c1` [Compound 9, 4-oxo-N-(3-sulfamoylphenyl)-1H-quinoline-3-carboxamide], the EC50 was in the range of 25 to 60 µM and the “% Activity” value is “+ (<25%)”.

Regarding `O=C(Nc1ccc2c(c1)NCCCC2)c1c[nH]c2ccccc2c1=O` [Compound 10, 1,4-dihydro-N-(2,3,4,5-tetrahydro-1H-benzo[b]azepin-8-yl)-4-oxoquinoline-3-carboxamide], the EC50 is less than 10 µM and the “% Activity” value is on record as “++ (between 25% to 100%)”.

Turning to `O=C(Nc1ccccc1-c1ccccc1C(F)(F)F)c1c[nH]c2ccccc2c1=O` [Compound 11, 4-oxo-N-[2-[2-(trifluoromethyl)phenyl]phenyl]-1H-quinoline-3-carboxamide], the EC50 was less than 10 µM and the “% Activity” value is reported as “++ (between 25% to 100%)”.

`CN(C)c1ccc(-c2ccccc2NC(=O)c2c[nH]c3ccccc3c2=O)cc1` [Compound 12, N-[2-(4-dimethylaminophenyl)phenyl]-4-oxo-1H-quinoline-3-carboxamide]: the EC50 was less than 10 µM and the “% Activity” value is given as “++ (between 25% to 100%)”.

Regarding `CC(C)(C)c1ccc(NC(=O)c2c[nH]c3ccccc3c2=O)cc1C#N` [Compound 13, N-(3-cyano-4-tert-butyl-phenyl)-4-oxo-1H-quinoline-3-carboxamide], the EC50 is less than 10 µM and the “% Activity” value is listed as “++ (between 25% to 100%)”.

In the case of `COC(=O)Nc1cc(NC(=O)c2c[nH]c3ccccc3c2=O)ccc1C(C)(C)C` [Compound 14, [5-[(4-oxo-1H-quinolin-3-yl)carbonylamino]-2-tert-butyl-phenyl]aminoformic acid methyl ester], the EC50 is less than 10 µM and the “% Activity” value is given as “++ (between 25% to 100%)”.

Consider `COc1ncccc1NC(=O)c1c[nH]c2ccccc2c1=O` [Compound 15, N-(2-methoxy-3-pyridyl)-4-oxo-1H-quinoline-3-carboxamide], for which the EC50 fell in the range of 10 to 25 µM and the “% Activity” value is listed as “++ (between 25% to 100%)”.

In the case of `CCCc1ccccc1NC(=O)c1c[nH]c2ccccc2c1=O` [Compound 16, 4-oxo-N-(2-propylphenyl)-1H-quinoline-3-carboxamide], the EC50 is less than 10 µM and the “% Activity” value is given as “++ (between 25% to 100%)”.

For `CCCOc1ccc(N)cc1NC(=O)c1c[nH]c2ccccc2c1=O` [Compound 17, N-(5-Amino-2-propoxy-phenyl)-4-oxo-1H-quinoline-3-carboxamide], the concentration for a half-maximal effect (EC50) was less than 10 µM and the “% Activity” value is reported as “++ (between 25% to 100%)”.

`O=C(Nc1cccc2c1Cc1ccccc1-2)c1c[nH]c2ccccc2c1=O` [Compound 18, N-(9H-fluoren-1-yl)-4-oxo-1H-quinoline-3-carboxamide]: the EC50 was less than 10 µM and the “% Activity” value is recorded as “++ (between 25% to 100%)”.

Take `O=C(Nc1ccc2ccccc2n1)c1c[nH]c2ccccc2c1=O` [Compound 19, 4-oxo-N-(2-quinolyl)-1H-quinoline-3-carboxamide]: the EC50 was in the range of 10 to 25 µM and the “% Activity” value is “+ (<25%)”.

With `Cc1ccccc1Oc1ccccc1NC(=O)c1c[nH]c2ccccc2c1=O` [Compound 20, N-[2-(2-methylphenoxy)phenyl]-4-oxo-1H-quinoline-3-carboxamide], the EC50 was less than 10 µM and the “% Activity” value was “++ (between 25% to 100%)”.

As to `O=C(Nc1ccc(S(=O)(=O)Nc2ccccn2)cc1)c1c[nH]c2ccccc2c1=O` [Compound 21, 4-oxo-N-[4-(2-pyridylsulfamoyl)phenyl]-1H-quinoline-3-carboxamide], the EC50 is 25 to 60 µM and the “% Activity” value was “+ (<25%)”.

As for `O=C(Nc1ccc2c(c1)NCC21CC1)c1c[nH]c2ccccc2c1=O` [Compound 22, 4-Oxo-1,4-dihydro-quinoline-3-carboxylic acid N-(1′,2′-dihydrospiro[cyclopropane-1,3′-[3H]indol]-6′-yl)-amide], the EC50 lay within 10 to 25 µM and the “% Activity” value is listed as “++ (between 25% to 100%)”.

Turning to `CCOc1ccccc1-c1cc(C(C)(C)C)c(O)cc1NC(=O)c1c[nH]c2ccccc2c1=O` [Compound 23, N-[2-(2-ethoxyphenyl)-5-hydroxy-4-tert-butyl-phenyl]-4-oxo-1H-quinoline-3-carboxamide], the EC50 was less than 10 µM and the “% Activity” value is given as “++ (between 25% to 100%)”.

For `O=C(Nc1cccc(S(=O)(=O)N2CCCC2)c1)c1c[nH]c2ccccc2c1=O` [Compound 24, 4-oxo-N-(3-pyrrolidin-1-ylsulfonylphenyl)-1H-quinoline-3-carboxamide], the half-maximal effective concentration (EC50) is 25 to 60 µM and the “% Activity” value is listed as “+ (<25%)”.

In the case of `CC(=O)Nc1cccc(-c2ccccc2NC(=O)c2c[nH]c3ccccc3c2=O)c1` [Compound 25, N-[2-(3-acetylaminophenyl)phenyl]-4-oxo-1H-quinoline-3-carboxamide], the “% Activity” value is “++ (between 25% to 100%)”.
